From PubChem BioAssay AID1996
Values after ≈ are worked out from the molar mass of the structure shown.

Conditions: buffer; pH 7.4; 200.0 µM

Row | SMILES | solubility kinetic [µg/mL]
1 | COc1cccc(C(=O)Nc2ccc3ccccc3c2)c1 | 1.6 (≈ 5.77 µM)
2 | CCc1ccccc1Nc1nc(-c2cccnc2)cs1 | 3.6 (≈ 12.8 µM)
3 | O=C(NCCCCc1ccccc1)c1ccccc1 | 14.4 (≈ 56.8 µM)
4 | O=C(Nc1ccccn1)c1ccc2ccccc2c1O | 31.4 (≈ 119 µM)
5 | OCc1nc2c(ccc3ccccc32)[nH]1 | > 29.7
6 | COc1ccc(/C=C/C(=O)N[C@H](C(=O)O)C(C)C)cc1 | > 41.6
7 | COc1cc(C(=O)Nc2ccn(C)n2)ccc1OC(F)F | > 44.6
8 | Cc1ccccc1NC(=O)NC1CCS(=O)(=O)C1 (centres undefined) | > 40.2
9 | COc1ccc(CNc2ncnc3ccccc23)cc1 | > 39.8
10 | O=C(Nc1nonc1-c1ccc(Cl)cc1)c1ccco1 | > 43.5
11 | Cc1nc(NC(=O)c2cccnc2Cl)sc1C | > 40.2
12 | CN(C)c1cccc(C(=O)Nc2ccc(S(=O)(=O)Nc3nccs3)cc2)c1 | > 60.4
13 | Brc1c(-c2ccc3c(c2)OCO3)nc2ncccn12 | 38.8 (≈ 122 µM)
14 | CNc1nc(-c2ccc(OC)cc2)c(-c2ccc(OC)cc2)s1 | 1.8 (≈ 5.51 µM)
15 | COc1cccc(CNc2nc3ccccc3n2C(C)C)c1O | 2.2 (≈ 7.07 µM)
16 | COc1ccc(OC)c(-c2nc3ccccc3nc2-c2ccccc2)c1 | 0.6 (≈ 1.75 µM)
17 | Nc1c(Cl)ncnc1NCCc1ccc(O)cc1 | 37.1 (≈ 140 µM)
18 | CC(=O)Nc1c(-c2ccccc2)nc2cc(C)ccn12 | 29.4 (≈ 111 µM)
19 | O=C(CCCc1ccccc1)NCc1ccc(Cl)cc1 | 27.7 (≈ 96.3 µM)
20 | CN1CCC2(CC1)NC(=O)c1ccccc1N2.Cl | > 40.2
21 | O=C(C#Cc1ccccc1)Nc1ccc(F)cc1 | 2.4 (≈ 10 µM)
22 | Cc1cc(C)cc(N2CC(C)Cn3c2nc2c3c(=O)[nH]c(=O)n2C)c1 (centres undefined) | 13 (≈ 38.3 µM)
23 | COc1ccc(NS(=O)(=O)c2ccc(Cl)c(NC(=O)c3ccccc3F)c2)cc1 | 2.6 (≈ 5.98 µM)
24 | CC1(C)C(=S)N(Cc2ccccc2)c2ccccc21 | < 0.6
25 | Cc1cc(C)c(-c2nc3ccccc3s2)[nH]1 | 0.8 (≈ 3.5 µM)
26 | O=[N+]([O-])c1ccccc1S(=O)(=O)N/C(=N/S(=O)(=O)c1ccccc1)c1ccccc1 | > 66.8
27 | Nc1cccc2c1C(=O)N(Cc1cccc(Cl)c1)C2=O | < 0.3

Row | SMILES | solubility kinetic [µg/mL]
28 | Cc1ccc(NC(=O)c2cc(C)nc3ccccc23)c(C)c1 | 27.1 (≈ 93.3 µM)
29 | Cc1ccc(NCC(O)Cn2cnc3c2c(=O)n(C)c(=O)n3C)cc1 (centres undefined) | 31.8 (≈ 92.6 µM)
30 | Oc1ccc(-c2nccc(-c3ccccn3)n2)cc1 | 12.6 (≈ 50.5 µM)
31 | O=C(CCNc1ccc(Br)cc1)c1cccc([N+](=O)[O-])c1 | 4.6 (≈ 13.2 µM)
32 | CNC(=O)Nc1cccc(-c2ccnc(C)n2)c1 | 27.5 (≈ 114 µM)
33 | c1ccc(Oc2ncnc3sccc23)cc1 | 25.1 (≈ 110 µM)
34 | O=C(NC(O)C(=O)c1ccccc1)c1ccccn1 (centres undefined) | > 38.4
35 | CC(NC(=O)c1ccc(Br)o1)c1ccc(-n2ccnc2)cc1 (centres undefined) | > 54
36 | O=C(O)c1ccc(S(=O)(=O)NC2CC2)cc1 | > 36.2
37 | O=C(Nc1ccc2ccccc2c1)c1cc(F)c(F)cc1Cl | < 0.7
38 | COc1cc(C(=O)NC(c2ccccc2)c2ccccc2)cc(OC)c1OC | < 0.8
39 | Cc1ccc2nc(C)cc(C(=O)Nc3nccs3)c2c1 | 19.3 (≈ 68.1 µM)
40 | O=C(/C=C/c1cc(Br)ccc1F)Nc1cccnc1 | 2 (≈ 6.23 µM)
41 | CC(=O)OC(C)C[N+](C)(C)C.[Cl-] (centres undefined) | > 29.4
42 | COc1ccc(C(CNC(=O)c2cc(S(=O)(=O)NCc3ccco3)ccc2C)N(C)C)cc1 (centres undefined) | > 70.7
43 | Cc1nc(Cl)c(C(=O)NCc2ccccc2)c(C)c1[N+](=O)[O-] | 10.8 (≈ 33.8 µM)
44 | S=C1N[C@H]2CCCC[C@@H]2N1 | 20.8 (≈ 133 µM)
45 | NC(=S)Nc1ccc(F)cc1F | > 28.2
46 | S=c1nc(COc2ccccc2)[nH]c2ccccc12 | 8 (≈ 29.8 µM)
47 | CNC(=O)c1[nH]cnc1C(=O)Nc1ccccn1 | > 36.8
48 | CNC(=O)COc1ccc(Cl)c2cccnc12 | > 37.6
49 | CCOc1cc(-c2nc3ccccc3s2)ccc1O | 1.1 (≈ 4.05 µM)
50 | CC1(C)CC(=O)c2ccc(OCc3ccc([N+](=O)[O-])cc3)cc2O1 | < 0.7
51 | Nc1ccc(C(=O)NCC2(c3ccccc3)CCCC2)cc1 | 17.8 (≈ 60.5 µM)
52 | COC(=O)c1[nH]c2c(c1C)C(=O)CC(c1cccc(OC)c1)C2 (centres undefined) | 2.1 (≈ 6.7 µM)
53 | Cn1c(COc2ccc(F)cc2)nc2ccccc21 | 36.3 (≈ 142 µM)

Further lines, results first:

Row | solubility kinetic [µg/mL] | SMILES
54 | > 43 | CCN1CCN(C(=O)/C=C/c2ccc(C(C)C)cc2)CC1
55 | > 44.6 | CSc1ccccc1NC(=O)CSc1nncs1
56 | > 52.2 | N#Cc1cc([N+](=O)[O-])ccc1NC(=O)CSc1n[nH]c(=O)[nH]c1=O
57 | 40.6 (≈ 145 µM) | CC1=C(C)CC(C(=O)Nc2nccs2)C(C(=O)O)C1 (centres undefined)
58 | > 44.8 | NS(=O)(=O)c1ccc(CCNC(=O)C2CCCO2)cc1 (centres undefined)
59 | 51.5 (≈ 150 µM) | CCn1c(=O)c2cc(C(=O)NCCN(C)C)sc2c2ccccc21
60 | < 0.3 | Cc1ccc(NC(=O)NC2CCCCCCC2)cc1
61 | > 59.2 | CCN(CC(=O)Nc1ccc2c(c1)OCCO2)S(=O)(=O)c1ccc(F)cc1
62 | > 51.8 | O=C(COC(=O)Cn1cnc2ccccc21)Nc1ccc(F)c(F)c1
63 | 15.5 (≈ 43.5 µM) | COc1ccccc1C(=O)CC(=O)C(=O)Nc1cccc([N+](=O)[O-])c1C
64 | > 47.9 | CCN(CC(=O)Nc1c(F)cccc1F)C(=O)c1ccccn1
65 | 25.1 (≈ 55.6 µM) | NC(=O)c1ccc(NC(=O)COC(=O)C2CCN(S(=O)(=O)c3cccs3)CC2)cc1
66 | > 39.2 | COc1ccc(CCC(=O)NC2CCCCC2)cc1
67 | > 41.3 | CC(=O)c1ccccc1OC(=O)c1ccc([N+](=O)[O-])o1
68 | > 47.2 | Cc1ccc(-c2csc3ncn(CC(=O)O)c(=O)c23)cc1C
69 | > 35.9 | CN=CC1=C(O)C(C(=O)OC)C(C)(C)CC1=O (centres undefined)
70 | 42.8 (≈ 137 µM) | CC(CNC(=O)c1ccc(N)cc1)NC(=O)c1ccc(N)cc1 (centres undefined)
71 | 0.8 (≈ 2.35 µM) | CC(=O)c1cccc(NC(=O)CCn2c(=S)oc3ccccc32)c1
72 | > 47.8 | CC1CCC(NC(=O)CCN2C(=O)C3CC=CCC3C2=O)CC1 (centres undefined)
73 | > 46.6 | CCc1ccccc1NC(=O)C1CCN(c2cnccn2)CC1
74 | > 58.7 | COc1ccc(Cc2c(O)nc(SCC(=O)N3CCOCC3)[nH]c2=O)cc1
75 | > 42.9 | CCOC(=O)c1ccc(NC(=O)c2ccc[n+]([O-])c2)cc1

Row | solubility kinetic [µg/mL] | SMILES
76 | > 47.5 | Cc1ccc(-c2csc3ncnc(SCC(=O)O)c23)cc1
77 | 3.2 (≈ 8.37 µM) | O=C(COC(=O)CNC(=O)c1ccc(Cl)cc1)Nc1ccc(Cl)cn1
78 | > 47 | C=CCNC(=O)C(=O)Nc1cc2c3c(c1)CCC(=O)N3CCC2
79 | 2.8 (≈ 8.61 µM) | Cc1cc2nc3c(=O)n(C4CCCCC4)c(=O)[nH]c3nc2cc1N
80 | > 45.9 | O=C(COC(=O)c1cnccn1)NCc1ccc(Cl)cc1
81 | 43.4 (≈ 128 µM) | CC(C)(C)NC(=O)COC(=O)c1ccccc1C(=O)c1ccccc1
82 | > 47.8 | COc1ccccc1C(=O)NCCC(=O)NCc1cccs1
83 | 9.2 (≈ 29.5 µM) | CC(=O)c1cccc(NC(=O)NCc2ccc3c(c2)OCO3)c1
84 | > 53.6 | Cc1ccsc1CN(C)CC(=O)Nc1ccccc1C(=O)NC1CC1
85 | > 42.4 | Cc1ccc(S(=O)(=O)NCCC(=O)NC2CC2)cc1
86 | > 55.6 | Cc1ccc(CNC(=O)COC(=O)CN2C(=O)C3CC=CCC3C2=O)cc1 (centres undefined)
87 | > 56.8 | O=C(Nc1cccc(-c2cscn2)c1)C1CCN(Cc2ccccn2)CC1
88 | 48.5 (≈ 128 µM) | CCOC(=O)N1CCc2c(sc(NC(=O)CN3CCOCC3)c2C#N)C1
89 | 0.8 (≈ 2.5 µM) | Cc1ccc(C(=O)OCC(=O)Nc2ccccc2Cl)c(O)c1
90 | 8.3 (≈ 24.5 µM) | COC(=O)c1ccc(CSc2nc(C(F)F)cc(C)c2C#N)o1
91 | > 47.5 | COc1ccc(N2CC(C(=O)N3CCCC(C)C3)CC2=O)cc1 (centres undefined)
92 | > 53.2 | C=CCSc1nc2sc3c(c2c(=O)n1CC)CCc1ccccc1-3
93 | > 53.5 | Cc1ccc(-n2c(C)cc(C(=O)OCC(=O)N3CCOCC3)c2C)cc1
94 | 28.7 (≈ 112 µM) | CC1CC(C)CN(C(=O)c2cc3ccccc3o2)C1 (centres undefined)
95 | > 40.9 | CC(C)CC(=O)Nc1cc2c3c(c1)CCN3C(=O)CC2
96 | > 48.7 | CCN(CC)CCCNc1oc(/C=C/c2ccccc2)nc1C#N
97 | > 41.2 | CC(=O)N1CCC(C(=O)Nc2cc(C)cc(C)c2)CC1

Row | solubility kinetic [µg/mL] | SMILES
98 | 42.4 (≈ 118 µM) | CC(NC(=O)CN1CCN(c2cccc(Cl)c2)CC1)c1ccccc1 (centres undefined)
99 | 34.4 (≈ 74.2 µM) | O=C(CN1C(=O)c2ccccc2S1(=O)=O)Nc1cccc(S(=O)(=O)N2CCCCC2)c1
100 | 24.2 (≈ 48.4 µM) | CN(C)S(=O)(=O)c1cccc(NC(=O)COC(=O)[C@H](Cc2ccccc2)NC(=O)c2ccco2)c1
101 | 34.2 (≈ 108 µM) | CCc1cccc(NC(=O)c2cc(OC)c(OC)c(OC)c2)c1
102 | > 41 | O=C(CN1CCCC1)N1CCN(c2ccccc2)CC1
103 | 44.8 (≈ 126 µM) | CCS(=O)CC(=O)Nc1c(-c2ccccc2)oc2ccccc2c1=O (centres undefined)
104 | 3.5 (≈ 10.8 µM) | N/C(=N\OC(=O)C1CCCCC1)c1cccc(Br)c1
105 | 23.9 (≈ 108 µM) | Cc1cnc(NC(=O)C2CC=CCC2)s1 (centres undefined)
106 | > 43.7 | CCOC(=O)Cn1ccc(NC(=O)c2ccc(F)cc2)n1
107 | 18.7 (≈ 61.5 µM) | Cc1ccc(Nc2nc(N)c([N+](=O)[O-])c(NCCO)n2)cc1
108 | > 38.6 | Cn1ccnc1SCC(=O)c1ccc(C#N)cc1
109 | > 52.1 | CC(=O)Nc1ccc(NC(=O)COC(=O)c2ccc([N+](=O)[O-])o2)cc1
110 | 1.3 (≈ 3.63 µM) | CC(=O)c1ccc(N2CCN(C(=O)Nc3ccc(Cl)cc3)CC2)cc1
111 | < 0.3 | O=C1CCc2ccc(OCCCCN3CCN(c4cccc(Cl)c4Cl)CC3)cc2N1
112 | 3.9 (≈ 18.3 µM) | CCOc1cccc2sc(Cl)nc12
113 | > 43.7 | O=C(Nc1nnc(C2=COCCO2)o1)c1ccc(F)cc1
114 | 45.3 (≈ 136 µM) | CC(C)(C)NC(=O)NC(=O)CN1CCN(Cc2ccccc2)CC1
115 | > 44.3 | CC(C)(C)NC(=O)NC(=O)COC(=O)c1cc[n+]([O-])cc1
116 | 10.1 (≈ 33.7 µM) | O=[N+]([O-])c1ccc(CN2CCN(c3ncccn3)CC2)cc1
117 | > 51.1 | CCS(=O)(=O)N1CCN(c2ncnc3sc(C)c(C)c23)CC1
118 | 9.6 (≈ 19.9 µM) | O=C(COC(=O)c1cc(S(=O)(=O)N2CCCC2)ccc1O)Nc1ccccc1Br
119 | > 40.4 | OC(CCN1CCC2(CC1)OCCO2)C(F)(F)F (centres undefined)
